These results are taken from PubChem BioAssay (NCI).

SMILES strings stand for the structures. “And” between values parts separate entries of the source, which are not always exact repeats. Equal entries are not always repeated.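 Each compound was tested at five concentrations against cells in 96-well plates for 48 hours. At the GI50, growth is halved. At the TGI there is no net growth.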

Test systems include BT-549 breast; CAKI-1 renal; EKVX NSCLC; HT29 colon; MDA-MB-435; NCI-H460 lung; NCI/ADR-RES ovarian; OVCAR-5 ovarian; RPMI-8226 leukemia; SK-MEL-5 melanoma; SN12C renal; SR leukemia; UACC-62 melanoma.
What all share (assay): NCI-60 cell line screen, 48 h

For the molecule `COCOC1/C=C/CCCCC2=C(C)C=C(C1)O2` (centres undefined), the TGI in the assay with BT-549 breast, in the assay with CAKI-1 renal, in the assay on EKVX NSCLC, in the assay on HT29 colon, with MDA-MB-435 and in the assay on NCI-H460 lung was above 100 µM throughout. The TGI in the assay on NCI/ADR-RES ovarian, with OVCAR-5 ovarian, with RPMI-8226 leukemia, in the assay with SK-MEL-5 melanoma, in the assay on SN12C renal and with SR leukemia was above 100 µM in each case. The same molecule returned a TGI with UACC-62 melanoma above 100 µM.
As for `O=C(O)c1c2c(cc3c1CC1(Cc4ccccc4C1)C3)CCC2`, the TGI with BT-549 breast, in the assay on CAKI-1 renal, in the assay with EKVX NSCLC, with HT29 colon, in the assay with MDA-MB-435 and with NCI-H460 lung was above 100 µM throughout. For the same molecule, the TGI in the assay on NCI/ADR-RES ovarian, with OVCAR-5 ovarian, in the assay with RPMI-8226 leukemia, in the assay on SK-MEL-5 melanoma, in the assay on SN12C renal and with SR leukemia was above 100 µM in each case. Besides, the TGI in the assay on UACC-62 melanoma was above 100 µM.
Regarding `C[N+]1=C2[B-](C(C)(C)C)=[N+](C(C)(C)C)[B-]2(C(C)(C)C)[N+](C)=C2[B-](C(C)(C)C)=[N+](C(C)(C)C)[B-]21C(C)(C)C` (centres undefined), the TGI in the assay with BT-549 breast, in the assay with CAKI-1 renal, in the assay on EKVX NSCLC, in the assay on HT29 colon, with MDA-MB-435 and with NCI-H460 lung was above 100 µM in each case. The TGI in the assay on NCI/ADR-RES ovarian, in the assay on OVCAR-5 ovarian, in the assay on RPMI-8226 leukemia, in the assay on SK-MEL-5 melanoma, with SN12C renal and in the assay with SR leukemia was above 100 µM in each case. This molecule returned a TGI in the assay with UACC-62 melanoma above 100 µM.
For `COC(=O)C(/C(=N/NC(N)=O)C(=O)Nc1ccc(C)cc1)c1nc2ccc([N+](=O)[O-])cc2[nH]c1=O` (centres undefined), the TGI in the assay with BT-549 breast, in the assay on CAKI-1 renal, in the assay on EKVX NSCLC, in the assay on HT29 colon, with MDA-MB-435 and in the assay on NCI-H460 lung was above 100 µM throughout. Besides, the TGI with NCI/ADR-RES ovarian, in the assay on OVCAR-5 ovarian, in the assay on RPMI-8226 leukemia, in the assay with SK-MEL-5 melanoma, in the assay with SN12C renal and with SR leukemia was above 100 µM throughout. This molecule yielded a TGI with UACC-62 melanoma above 100 µM.
`CC(=O)OCC1OC(OC(C)(C)CC/C=C(\C)[C@@H]2C/C=C(\C)CC/C=C(\C)CC2)C(O)C(O)C1OC(C)=O` (some centres undefined): the TGI in the assay on BT-549 breast was 88.6 µM and 34.8 µM; in the assay on CAKI-1 renal, > 100 µM and 35.3 µM; in the assay on EKVX NSCLC it was > 100 µM and 37.3 µM; with HT29 colon, > 55.5 µM and 28.1 µM; with MDA-MB-435, > 82.5 µM and 38.8 µM; in the assay on NCI-H460 lung it was 35.3 µM and 61.8 µM. The TGI is > 100 µM and 38.7 µM in the assay with NCI/ADR-RES ovarian; > 100 µM and 34.1 µM in the assay on OVCAR-5 ovarian; 70.6 µM and > 100 µM in the assay with RPMI-8226 leukemia; > 83.7 µM and 34.6 µM in the assay with SK-MEL-5 melanoma; > 94.1 µM and 41.2 µM in the assay with SN12C renal; above 100 µM in the assay on SR leukemia. In the assay on UACC-62 melanoma, the TGI is > 100 µM and 30.6 µM. For the same molecule, the GI50 in the assay on CAKI-1 renal was 58.6 µM and 18.7 µM; with EKVX NSCLC, 43.6 µM and 19 µM; in the assay with NCI/ADR-RES ovarian it was 45.8 µM and 19.5 µM; in the assay with OVCAR-5 ovarian it was > 100 µM and 16.6 µM; in the assay with SR leukemia it was 36.3 µM and > 100 µM; with UACC-62 melanoma, > 92.8 µM and 15.3 µM.
In the case of `CCCCCCCCCCCCCCCCCCNc1ccn(C2OC(COP(=O)(O)OCC3OC(n4ccc(NC(=O)CCCCCCCCCCCCCCCCC)nc4=O)C(OC(C)=O)C3OC(C)=O)C(OC(C)=O)C2OC(C)=O)c(=O)n1` (centres undefined), the TGI in the assay with BT-549 breast, in the assay with CAKI-1 renal, with EKVX NSCLC, in the assay on HT29 colon, in the assay on MDA-MB-435 and in the assay with NCI-H460 lung was above 100 µM throughout. The TGI in the assay with NCI/ADR-RES ovarian, with OVCAR-5 ovarian, in the assay with RPMI-8226 leukemia, in the assay with SK-MEL-5 melanoma, in the assay on SN12C renal and in the assay on SR leukemia was above 100 µM throughout. This molecule also came in with a TGI in the assay with UACC-62 melanoma above 100 µM.
Turning to `CC(C)c1ccc2[nH]c(O)c(-c3[nH]c4ccccc4c3N=O)c2c1`, the TGI with BT-549 breast turned out to be 19.4 µM; with CAKI-1 renal, 22.9 µM; with EKVX NSCLC, 16.6 µM; in the assay on HT29 colon it was 15 µM; in the assay with MDA-MB-435, 20.5 µM; with NCI-H460 lung it was 15.2 µM. The TGI with NCI/ADR-RES ovarian is 22 µM; in the assay on OVCAR-5 ovarian, 30.5 µM; in the assay on RPMI-8226 leukemia it was 22.3 µM; in the assay on SK-MEL-5 melanoma, 15.8 µM; in the assay with SN12C renal it was 16.8 µM; in the assay on SR leukemia it was 7.32 µM. This molecule also gave a TGI in the assay on UACC-62 melanoma of 20.6 µM.
In the case of `CC(C)=CCOC(=O)C(C)=[N+]=[N-]`, the TGI in the assay with BT-549 breast, in the assay with CAKI-1 renal, with EKVX NSCLC, with HT29 colon, in the assay with MDA-MB-435 and in the assay with NCI-H460 lung was above 100 µM in each case. Also, the TGI in the assay with NCI/ADR-RES ovarian, with OVCAR-5 ovarian, in the assay on RPMI-8226 leukemia, in the assay with SK-MEL-5 melanoma, in the assay with SN12C renal and in the assay with SR leukemia was above 100 µM in each case. In the assay on UACC-62 melanoma, this molecule registered a TGI above 100 µM.
As to `C=C1CC(COc2cc(=O)oc3ccccc23)(c2ccccc2)OC1=O` (centres undefined), the TGI in the assay on BT-549 breast came out at 2.97 µM; in the assay with CAKI-1 renal, 2.67 µM; in the assay with EKVX NSCLC, 13.5 µM; in the assay on HT29 colon it was 3.4 µM; in the assay on MDA-MB-435, 11 µM; in the assay on NCI-H460 lung, 23.7 µM. Besides, the TGI in the assay with NCI/ADR-RES ovarian is 25.1 µM; in the assay on OVCAR-5 ovarian, 21.4 µM; in the assay on RPMI-8226 leukemia it was 4.01 µM; with SK-MEL-5 melanoma it was 3.35 µM; in the assay on SN12C renal, 6.92 µM; in the assay with SR leukemia it was above 28 µM. This molecule came in with a TGI in the assay on UACC-62 melanoma of 2.92 µM.
On to `CCCCN1C(=O)CC2[C@@H]3CCc4cc(OC(C)=O)ccc4C3CC[C@]2(C)C1=O` (some centres undefined), for which the TGI with BT-549 breast, in the assay with CAKI-1 renal, in the assay on EKVX NSCLC, in the assay on HT29 colon, with MDA-MB-435 and with NCI-H460 lung was above 10 µM each time. For the same molecule, the TGI in the assay with NCI/ADR-RES ovarian, in the assay on OVCAR-5 ovarian, in the assay on RPMI-8226 leukemia, in the assay on SK-MEL-5 melanoma, in the assay on SN12C renal and with SR leukemia was above 10 µM in each case. In the assay with UACC-62 melanoma, the TGI was above 10 µM.
On to `O=c1nc(N2CCN(c3ccccc3)CC2)ccn1C1OC(CO)C(O)C1O` (centres undefined), for which the TGI in the assay on BT-549 breast, in the assay with CAKI-1 renal, in the assay with EKVX NSCLC, in the assay with HT29 colon, with MDA-MB-435 and with NCI-H460 lung was above 100 µM each time. The TGI in the assay on NCI/ADR-RES ovarian, with OVCAR-5 ovarian, in the assay with RPMI-8226 leukemia, with SK-MEL-5 melanoma, in the assay with SN12C renal and in the assay on SR leukemia was above 100 µM throughout. In addition, in the assay on UACC-62 melanoma, the TGI is above 100 µM.
